Data taken from patent US20160324863A1, “TARGETED CANCER TREATMENT BY HSP90 INHIBITORS GANETESPIB AND NVP-AUY922” (SYNTA PHARMACEUTICALS CORP., priority 2014, published 2016).

Columns and labels:
[1] = system: RT112 bladder cancer cells; assay: Reverse phase protein array analysis in RT112 cells; type: cell-based; settings: 100 nM ganetespib, 24 hours
Description: RT112 cells were treated with dimethyl sulfoxide (DMSO, control) or 100 nM ganetespib for 24 hours. Lysates were prepared as recommended by MD Anderson Cancer Center (Houston, Tex.), arrayed on nitrocellulose-coated FAST slides (Whatman) and probed for a standard list of antibodies.

HT29 cells = assay: LC-MS/MS bioanalysis of ganetespib in HT29 cells; type: in vitro ADME, human; settings: 1 μM ganetespib, 8 hr
Description: (§1) Colon cancer cells were treated with 1 μM ganetespib for 5, 15, 30, 60 or 480 minutes. At each time point, media was collected and cell lysates were generated for subsequent bioanalysis of secreted and intracellular concentrations of ganetespib and its glucuronides. Equal protein concentrations from cell lysates or equal volumes of media were used for the bioanalysis. Samples were extracted by protein precipitation and analyzed by LC-MS/MS using an Agilent 1100 HPLC interfaced to an API 4000 tandem mass spectrometer (Applied Biosystems). A Phenomenex Kinetex 2.6 μm C18 (30×2.1 mm) column was used with a run time of 3.5 min per sample.

SW1463 cells = assay: LC-MS/MS bioanalysis of ganetespib in SW1463 cells; type: in vitro ADME, human; settings: 1 μM ganetespib, 8 hr
Description: as §1

[2] = system: TCCSUP bladder cancer cell line; assay: CellTiter-Glo viability assay, TCCSUP; type: cell-based; settings: Homo sapiens, TCC-SUP, FGFR3 status WT, 72 hours, read-out: Ganetespib IC50
Description: (§2) Cellular viability was assessed using the CellTiter-Glo Luminescent Cell Viability Assay (Promega) according to manufacturer protocols. Bladder cancer cell lines were seeded into 96-well plates based on optimal growth rates determined empirically for each line. Twenty-four hours after plating, cells were dosed with graded concentrations of ganetespib for 72 hours. CellTiter-Glo was added (50% v/v) to the cells, and the plates incubated for 10 minutes prior to luminescent detection in a SpectraMax Plus 384 microplate reader (Molecular Devices). Data were normalized to percent of control and IC50 values used to determine the sensitivity of each line. For the comparative analyses with ganetespib and BGJ398, RT112 cells were treated with graded concentrations of each compound for 72 hours and cell viability measured as above. For the evaluation of apoptotic induction, caspase activity was assessed using the Caspase-Glo 3/7 assay (Promega) according to manufacturer protocols. Twenty-four hours after plating, RT112 cells were treated with graded concentrations of ganetespib for 24 hours. Caspase-Glo was added to cells (50% v/v) and the plates incubated for 1 hour prior to luminescent detection.

[3] = system: UM-UC3 bladder cancer cell line; assay: CellTiter-Glo viability assay, UM-UC3; type: cell-based; settings: Homo sapiens, UMUC3, FGFR3 status WT, 72 hours, read-out: Ganetespib IC50
Description: as §2

[4] = system: HT-1197 bladder cancer cell line; assay: CellTiter-Glo viability assay, HT-1197; type: cell-based; settings: Homo sapiens, HT1197, FGFR3 status WT, 72 hours, read-out: Ganetespib IC50
Description: as §2

RT112 xenografts = assay: RT112 xenograft tumor model; type: in vivo; settings: ganetespib 150 mg/kg i.v. once weekly, 3 weeks
Description: CD-1 nude mice (Charles River Laboratories, Wilmington, Mass.) at 7-12 weeks of age were maintained in a pathogen-free environment and all in vivo procedures were approved by the Synta Pharmaceuticals Corp. Institutional Animal Care and Use Committee. RT112 cells (5×10^6) were subcutaneously implanted into female mice and animals bearing established tumors (˜150 mm^3) were randomized into treatment groups of 8. Mice were i.v. dosed with ganetespib (150 mg/kg) once weekly or p.o. dosed with BGJ398 (10 mg/kg) daily, either alone or in combination, for 3 weeks. Tumor growth inhibition was monitored by tumor volume measurements twice weekly. As a measurement of in vivo efficacy, the % T/C value was determined from the change in average tumor volumes of each treated group relative to the vehicle treated animals. Statistical significance was determined using two-way ANOVA followed by Bonferroni post tests.

[5] = system: panel of eleven CRC-derived cell lines; assay: Proliferation assay in CRC-derived cell lines (Celigo confluence); type: cell-based; settings: Homo sapiens, 96 h; range across eleven CRC cell lines; four days; read-out: Drug concentrations that inhibited the growth rate by 50%
Description: Eleven cell lines derived from human colorectal cancers (CRC) were cultured in RPMI (Invitrogen, Darmstadt, Germany) supplemented with 10% FCS (ThermoScientific, Waltham Mass., USA), 2 mM L-glutamine and Penicillin-Streptomycin (Invitrogen). Cell-line cross-contaminatino was excluded using short tandem repeat profiling. Specific knockdown of target genes was performed using pre-designed Silencer Select siRNAs (s231075 and s231076, designated s75 and s76) or control siRNAs (scrambled, all from Ambion, Hamburg, Germany) with a final concentration of 5 nM. Overexpression was performed with pCMV-SPORT6 vector constructs. For both up- and downregulation, Lipofectamine 2000 (Invitrogen) was applied in a forward transfection protocol. Ganetespib (Synta Pharma, Lexington Mass., USA) and 17AAG (Calbiochem, Darmstadt, Germany) were dissolved in DMSO (50 mM and 5 mM stocks, respectively) and diluted to the indicated concentrations with culture medium.
For cell proliferation analysis, cells were seeded at 10^5 cells/well in 12-well plates 24 hours prior to treatment. […] Over the course of the 4-day treatment, cell confluence was measured by brightfield microscopy using a Celigo Adherent Cell Cytometer (Brooks, Chelmsford Mass., USA). Confluence was calculated with the Celigo software program.

[6] = system: LB831-BLC bladder cancer cell line; assay: CellTiter-Glo viability assay, LB831-BLC; type: cell-based; settings: FGFR3 status WT, 72 hours, read-out: Ganetespib IC50
Description: as §2

[7] = system: T24 bladder cancer cell line; assay: CellTiter-Glo viability assay, T24; type: cell-based; settings: FGFR3 status WT, 72 hours, read-out: Ganetespib IC50
Description: as §2

Structure (SMILES): CC(C)c1cc(-c2n[nH]c(=O)n2-c2ccc3c(ccn3C)c2)c(O)cc1O [ganetespib]
- Fold Change AKT ([1]; AKT signaling): −2.4 fold
- Fold Change AKT (pS473) ([1]; AKT signaling): −2.5 fold
- Fold Change GSK3-A/B ([1]; AKT signaling): −1.5 fold
- Fold Change GSK3-A/B (pS2/S9) ([1]; AKT signaling): −1.8 fold
- Fold Change PDK1 ([1]; AKT signaling): −1.4 fold
- Fold Change PDK1 (pS241) ([1]; AKT signaling): −1.7 fold
- Fold Change BIM ([1]; Apoptosis): +1.4 fold
- Fold Change Caspase 7 (cleaved D198) ([1]; Apoptosis): +2.5 fold
- Fold Change CDK1 ([1]; Cell cycle regulation): −1.4 fold
- Fold Change Chk1 ([1]; Cell cycle regulation): −3.2 fold
- Fold Change Cyclin B1 ([1]; Cell cycle regulation): −1.9 fold
- Fold Change Rb (pS807/811) ([1]; Cell cycle regulation): −4.6 fold
- Fold Change p21 ([1]; Cell cycle regulation): +1.4 fold
- Fold Change p27 ([1]; Cell cycle regulation): +1.5 fold
- Fold Change C-RAF ([1]; MAPK pathway): −1.8 fold
- Fold Change MAPK (pT202/Y204) ([1]; MAPK pathway): −1.5 fold
- Fold Change MEK1 (pS217/S221) ([1]; MAPK pathway): −1.4 fold
- Fold Change P90RSK (pT359/S363) ([1]; MAPK pathway): −1.4 fold
- Fold Change Src (pY527) ([1]; MAPK pathway): −1.4 fold
- Fold Change EGFR ([1]; Receptor Tyrosine Kinases): −1.5 fold
- Fold Change EGFR (pY1068) ([1]; Receptor Tyrosine Kinases): −1.9 fold
- Fold Change HER2 ([1]; Receptor Tyrosine Kinases): −2.2 fold
- Fold Change HER2 (pY1248) ([1]; Receptor Tyrosine Kinases): −2.2 fold
- Fold Change HER3 ([1]; Receptor Tyrosine Kinases): −1.6 fold
- Fold Change MET (pY1235) ([1]; Receptor Tyrosine Kinases): −2.7 fold
- Fold Change HSP70/72 ([1]; Stress response): +3.0 fold
- Fold Change HSP90 alpha ([1]; Stress response): +1.6 fold
- Fold Change NF-κB p65 (pS536) ([1]; Transcription factors): −2.3 fold
- Fold Change c-Myc ([1]; Transcription factors): −2.5 fold
- Fold Change 4E-BP1 (pS65) ([1]; mTOR pathway): −2.5 fold
- Fold Change P70S6K (pT389) ([1]; mTOR pathway): −4.7 fold
- Fold Change PRAS40 (pT246) ([1]; mTOR pathway): −1.2 fold
- Fold Change S6 (pS235/S236) ([1]; mTOR pathway): −13.2 fold
- Fold Change S6 (pS240/S244) ([1]; mTOR pathway): −8.9 fold
- Fold Change TSC1 ([1]; mTOR pathway): −1.3 fold
- Fold Change Tuberin ([1]; mTOR pathway): −2.2 fold
- Fold Change mTOR (pS2448) ([1]; mTOR pathway): −2.2 fold
- ganetespib present (HT29 cells): 13 nM
- ganetespib present (SW1463 cells): ~190 nM
- IC50 [2]: 142 nM
- IC50 [3]: 33 nM
- IC50 [4]: 53 nM
- T/C value (RT112 xenografts): −23%
- IC50 [5]: 36 to 2500 nM
- IC50 [6]: 34 nM
- IC50 [7]: 7 nM
